Laboratory results: US11000033B2, “Ketone or oxime compound, and herbicide” (NISSAN CHEMICAL CORPORATION, priority 2014, dated 2021)

Columns and labels:
Type in all cases: in vivo
Veronica persica = assay: Test Example 5: herbicidal effect by foliage application, plastic box (symbol R); conditions: 320 g/ha, 3 weeks after application
From the text: (§1) Herbicidal Effect Test by Foliage Application
(§2) Sterilized diluvial soil was placed in a plastic box having a length of 21 cm, a width of 13 cm, and a depth of 7 cm. Each of the seeds of Digitaria ciliaris, Setaria viridis, Echinochloa crus-galli var. crus-galli, Avena fatua, Alopecurus myosuroides, Lolium multiflorum Lam., Apera spica-venti, Abutilon theophrasti, Amaranthus retroflexus, Chenopodium album, Stellaria media, Galium spurium, Veronica persica, corn, soybean, rice plant, wheat, beet, and rapeseed was sowed in a spot-like manner and was covered with the soil of a thickness of about 1.5 cm. Thereafter, the plants were grown in the greenhouse of 25° C. to 30° C. After the plants were grown for 14 days, the emulsion agent of the compound of the present invention prepared in accordance with Formulation Example 2 was diluted with water so as to be a predetermined herbicide amount and the diluted emulsion agent was uniformly applied to a foliage part with a small-size spray. 3 weeks later from the herbicide application, the effect to each plant was investigated in accordance with the criteria of Test Example 1.

Amaranthus retroflexus = assay: Test Example 5: herbicidal effect by foliage application, plastic box (symbol N); conditions: 320 g/ha, 3 weeks after application
From the text: as §1, §2

Abutilon theophrasti = assay: Test Example 5: herbicidal effect by foliage application, plastic box (symbol M); conditions: 320 g/ha, 3 weeks after application
From the text: as §1, §2

Digitaria ciliaris = assay: Test Example 5: herbicidal effect by foliage application, plastic box (symbol F); conditions: 320 g/ha, 3 weeks after application
From the text: as §1, §2

Apera spica-venti = assay: Test Example 5: herbicidal effect by foliage application, plastic box (symbol L); conditions: 320 g/ha, 3 weeks after application
From the text: as §1, §2

Stellaria media = assay: Test Example 5: herbicidal effect by foliage application, plastic box (symbol P); conditions: 320 g/ha, 3 weeks after application
From the text: as §1, §2

Chenopodium album = assay: Test Example 5: herbicidal effect by foliage application, plastic box (symbol O); conditions: 320 g/ha, 3 weeks after application
From the text: as §1, §2

Avena fatua = assay: Test Example 5: herbicidal effect by foliage application, plastic box (symbol I); conditions: 320 g/ha, 3 weeks after application
From the text: as §1, §2

Cyperus difformis = assay: Test Example 3: herbicidal effect by foliage application, Wagner pot (symbol E); conditions: application herbicide amount 320 g/ha
Experimental: as §1
(§3) After alluvial soil was placed into 1/10000 are of Wagner pot, water was poured and mixed to form a submerged condition having a water depth of 0.1 cm to 0.5 cm. Seeds of Echinochloa crus-galli var. crus-galli, Leptochloa chinensis, Cyperus difformis, and rice were sowed and the pot was placed in the greenhouse of 25° C. to 30° C. to grow the plants. After the plants were grown for 14 days, the emulsion agent of the compound of the present invention prepared in accordance with Formulation Example 2 was diluted with water so as to be a predetermined herbicide amount and the diluted emulsion agent was uniformly applied to a foliage part with a small-size spray. 3 weeks later from the herbicide application, the effect to each plant was investigated in accordance with the criteria of Test Example 1.

beet = assay: Test Example 5: effect on crop by foliage application, plastic box (symbol f); conditions: 320 g/ha, 3 weeks after application
From the text: as §1
(§4) Sterilized diluvial soil was placed in a plastic box having a length of 21 cm, a width of 13 cm, and a depth of 7 cm. Each of the seeds of Digitaria ciliaris, Setaria viridis, Echinochloa crus-galli var. crus-galli, Avena fatua, Alopecurus myosuroides, Lolium multiflorum Lam., Apera spica-venti, Abutilon theophrasti, Amaranthus retroflexus, Chenopodium album, Stellaria media, Galium spurium, Veronica persica, corn, soybean, rice plant, wheat, beet, and rapeseed was sowed in a spot-like manner and was covered with the soil of a thickness of about 1.5 cm. Thereafter, the plants were grown in the greenhouse of 25° C. to 30° C.

[1] = system: Echinochloa crus-galli var. crus-galli; assay: Test Example 5: herbicidal effect by foliage application, plastic box (symbol H); conditions: 320 g/ha, 3 weeks after application
From the text: as §1, §2

rice plant = assay: Test Example 5: effect on crop by foliage application, plastic box (symbol b); conditions: 320 g/ha, 3 weeks after application
From the text: as §1, §4

soybean = assay: Test Example 5: effect on crop by foliage application, plastic box (symbol d); conditions: 320 g/ha, 3 weeks after application
From the text: as §1, §4

[2] = system: directly sowed rice plant; assay: Test Example 3: effect on crop by foliage application, Wagner pot (symbol b); conditions: application herbicide amount 320 g/ha
Experimental: as §1
After alluvial soil was placed into 1/10000 are of Wagner pot, water was poured and mixed to form a submerged condition having a water depth of 0.1 cm to 0.5 cm. Seeds of Echinochloa crus-galli var. crus-galli, Leptochloa chinensis, Cyperus difformis, and rice were sowed and the pot was placed in the greenhouse of 25° C. to 30° C. to grow the plants.

Leptochloa chinensis = assay: Test Example 3: herbicidal effect by foliage application, Wagner pot (symbol D); conditions: application herbicide amount 320 g/ha
Experimental: as §1, §3

[3] = system: Echinochloa crus-galli var. crus-galli; assay: Test Example 3: herbicidal effect by foliage application, Wagner pot (symbol H); conditions: application herbicide amount 320 g/ha
Experimental: as §1, §3

corn = assay: Test Example 5: effect on crop by foliage application, plastic box (symbol c); conditions: 320 g/ha, 3 weeks after application
From the text: as §1, §4

wheat = assay: Test Example 5: effect on crop by foliage application, plastic box (symbol e); conditions: 320 g/ha, 3 weeks after application
From the text: as §1, §4

rapeseed = assay: Test Example 5: effect on crop by foliage application, plastic box (symbol g); conditions: 320 g/ha, 3 weeks after application
From the text: as §1, §4

Alopecurus myosuroides = assay: Test Example 5: herbicidal effect by foliage application, plastic box (symbol J); conditions: 320 g/ha, 3 weeks after application
From the text: as §1, §2

Setaria viridis = assay: Test Example 5: herbicidal effect by foliage application, plastic box (symbol G); conditions: 320 g/ha, 3 weeks after application
From the text: as §1, §2

Lolium multiflorum Lam. = assay: Test Example 5: herbicidal effect by foliage application, plastic box (symbol K); conditions: 320 g/ha, 3 weeks after application
From the text: as §1, §2

transplanted rice plant = assay: Test Example 1: effect on crop, application before weed generation in submerged conditions (symbol a); conditions: application herbicide amount 320 g/ha
Experimental: (§5) Herbicidal Activity Test by Application Before Weed Generation in Submerged Conditions
After alluvial soil was placed into 1/10000 are of Wagner pot, water was poured and mixed to form a submerged condition having a water depth of 4 cm. Seeds of Echinochloa oryzacola Vasing., Scirpus juncoides, and Monochoria vaginalis were sowed in a mixed manner in the above pot and thereafter 2.5 leaf stage rice plant seedlings were transplanted thereto. […] The pot was placed in a greenhouse of 25° C. to 30° C. to grow plant. 3 weeks later from the herbicide application, the effect to each plant was investigated in accordance with the following criteria.
(§6) 5 Herbicidal ratio of 90% or more (almost completely withered)
(§7) 4 Herbicidal ratio of 70% or higher and lower than 90%
(§8) 3 Herbicidal ratio of 40% or higher and lower than 70%
(§9) 2 Herbicidal ratio of 20% or higher and lower than 40%
(§10) 1 Herbicidal ratio of 5% or higher and lower than 20%
(§11) 0 Herbicidal ratio of 5% or lower (almost no effect)

[4] = system: Echinochloa oryzacola Vasing.; assay: Test Example 2: herbicidal activity, application during weed generation in submerged conditions (symbol A); conditions: Table 23; application herbicide amount 320 g/ha; grade 0-5 by criteria of Test Example 1
Experimental: (§12) Herbicidal Activity Test by Application During Weed Generation in Submerged Conditions
(§13) After alluvial soil was placed into 1/10000 are of Wagner pot, water was poured and mixed to form a submerged condition having a water depth of 4 cm. Seeds of Echinochloa oryzacola Vasing., Scirpus juncoides, and Monochoria vaginalis were sowed in a mixed manner in the above pot and the pot was placed in the greenhouse of 25° C. to 30° C. to grow the plants. When Echinochloa oryzacola Vasing., Scirpus juncoides, and Monochoria vaginalis were grown to one leaf stage to two leaf stage, the emulsion agent of the compound of the present invention prepared in accordance with Formulation Example 2 was diluted with water so as to be a predetermined herbicide amount and the diluted emulsion agent was applied to the surface of the water. 3 weeks later from the herbicide application, the effect to each plant was investigated in accordance with the criteria of Test Example 1.

[5] = system: Echinochloa oryzacola Vasing.; assay: Test Example 1: herbicidal activity, application before weed generation in submerged conditions (symbol A); conditions: application herbicide amount 320 g/ha
From the text: as §5
as §13, with “thereafter 2.5” for “the pot was placed in the greenhouse of 25° C. to 30° C. to grow the plants. When Echinochloa oryzacola Vasing., Scirpus juncoides, and Monochoria vaginalis were grown to one”, “rice plant seedlings were transplanted thereto. On the day of sowing seeds,” for “to two leaf stage,”, “water. The pot was placed in a greenhouse of 25° C. to 30° C. to grow plant.” for “water.”, “following criteria.” for “criteria of Test Example 1.”
as §6, §7, §8, §9, §10, §11

Scirpus juncoides [6] = assay: Test Example 2: herbicidal activity, application during weed generation in submerged conditions (symbol B); conditions: Table 23; application herbicide amount 320 g/ha; grade 0-5 by criteria of Test Example 1
Experimental: as §12, §13

Scirpus juncoides [7] = assay: Test Example 1: herbicidal activity, application before weed generation in submerged conditions (symbol B); conditions: application herbicide amount 320 g/ha
From the text: as §5
as §13, with “thereafter 2.5” for “the pot was placed in the greenhouse of 25° C. to 30° C. to grow the plants. When Echinochloa oryzacola Vasing., Scirpus juncoides, and Monochoria vaginalis were grown to one”, “rice plant seedlings were transplanted thereto. On the day of sowing seeds,” for “to two leaf stage,”, “water. The pot was placed in a greenhouse of 25° C. to 30° C. to grow plant.” for “water.”, “following criteria.” for “criteria of Test Example 1.”
as §6, §7, §8, §9, §10, §11

Monochoria vaginalis = assay: Test Example 2: herbicidal activity, application during weed generation in submerged conditions (symbol C); conditions: Table 23; application herbicide amount 320 g/ha; grade 0-5 by criteria of Test Example 1
Experimental: as §12, §13

SMILES	R: Veronica persica, herbicidal effect grade (Veronica persica)	N: Amaranthus retroflexus, herbicidal effect grade (Amaranthus retroflexus)	M: Abutilon theophrasti, herbicidal effect grade (Abutilon theophrasti)	F: Digitaria ciliaris, herbicidal effect grade (Digitaria ciliaris)	L: Apera spica-venti, herbicidal effect grade (Apera spica-venti)	P: Stellaria media, herbicidal effect grade (Stellaria media)	O: Chenopodium album, herbicidal effect grade (Chenopodium album)	I: Avena fatua, herbicidal effect grade (Avena fatua)	herbicidal effect on E, grade 0-5 (Cyperus difformis)	f: beet, effect on crop grade (beet)	H: Echinochloa crus-galli var. crus-galli, herbicidal effect grade [1]	b: directly sowed rice plant, effect on crop grade (rice plant)	d: soybean, effect on crop grade (soybean)	effect on crop b (directly sowed rice plant), grade 0-5 [2]	herbicidal effect on D (Leptochloa chinensis), grade 0-5 (Leptochloa chinensis)	herbicidal effect on H (Echinochloa crus-galli var. crus-galli), grade 0-5 [3]	c: corn, effect on crop grade (corn)	e: wheat, effect on crop grade (wheat)	g: rapeseed, effect on crop grade (rapeseed)	J: Alopecurus myosuroides, herbicidal effect grade (Alopecurus myosuroides)	other results
CON=C(C)CC1CC(O)=C(c2c(C)cc(NC(=O)OC(C)(C)C)cc2C)C1=O (mixture of isomers) [6-033]	0 (Herbicidal ratio of 5% or lower (almost no effect))	0 (Herbicidal ratio of 5% or lower (almost no effect))	0 (Herbicidal ratio of 5% or lower (almost no effect))	0 (Herbicidal ratio of 5% or lower (almost no effect))	0 (Herbicidal ratio of 5% or lower (almost no effect))	0 (Herbicidal ratio of 5% or lower (almost no effect))	0 (Herbicidal ratio of 5% or lower (almost no effect))	3 (Herbicidal ratio of 40% or higher and lower than 70%)	3 (Herbicidal ratio of 40% or higher and lower than 70%)	0 (Herbicidal ratio of 5% or lower (almost no effect))	1 (Herbicidal ratio of 5% or higher and lower than 20%)	3 (Herbicidal ratio of 40% or higher and lower than 70%)	0 (Herbicidal ratio of 5% or lower (almost no effect))	0 (Herbicidal ratio of 5% or lower (almost no effect))	0 (Herbicidal ratio of 5% or lower (almost no effect))	0 (Herbicidal ratio of 5% or lower (almost no effect))	3 (Herbicidal ratio of 40% or higher and lower than 70%)	0 (Herbicidal ratio of 5% or lower (almost no effect))	1 (Herbicidal ratio of 5% or higher and lower than 20%)	0 (Herbicidal ratio of 5% or lower (almost no effect))	G: Setaria viridis, herbicidal effect grade (Setaria viridis): 0 (Herbicidal ratio of 5% or lower (almost no effect))
CCC(C(C)=O)(C(=O)OC)C1CC(O)=C(c2c(C)cc(C)cc2C)C1=O (stereo not shown) [2-023]	0 (Herbicidal ratio of 5% or lower (almost no effect))	0 (Herbicidal ratio of 5% or lower (almost no effect))	0 (Herbicidal ratio of 5% or lower (almost no effect))	0 (Herbicidal ratio of 5% or lower (almost no effect))	0 (Herbicidal ratio of 5% or lower (almost no effect))	0 (Herbicidal ratio of 5% or lower (almost no effect))	0 (Herbicidal ratio of 5% or lower (almost no effect))	0 (Herbicidal ratio of 5% or lower (almost no effect))	–	0 (Herbicidal ratio of 5% or lower (almost no effect))	1 (Herbicidal ratio of 5% or higher and lower than 20%)	3 (Herbicidal ratio of 40% or higher and lower than 70%)	0 (Herbicidal ratio of 5% or lower (almost no effect))	–	–	–	0 (Herbicidal ratio of 5% or lower (almost no effect))	0 (Herbicidal ratio of 5% or lower (almost no effect))	0 (Herbicidal ratio of 5% or lower (almost no effect))	0 (Herbicidal ratio of 5% or lower (almost no effect))	K: Lolium multiflorum Lam., herbicidal effect grade (Lolium multiflorum Lam.): 1 (Herbicidal ratio of 5% or higher and lower than 20%); G: Setaria viridis, herbicidal effect grade (Setaria viridis): 0 (Herbicidal ratio of 5% or lower (almost no effect))
CON=C(C)CC1CC(O)=C(c2c(C)cc(SC)cc2C)C1=O (stereo not shown) [6-024]	–	–	–	–	–	–	–	–	3 (Herbicidal ratio of 40% or higher and lower than 70%)	–	–	–	–	3 (Herbicidal ratio of 40% or higher and lower than 70%)	2 (Herbicidal ratio of 20% or higher and lower than 40%)	3 (Herbicidal ratio of 40% or higher and lower than 70%)	–	–	–	–	Effect grade on crop, a: transplanted rice plant (transplanted rice plant): 3 (Herbicidal ratio of 40% or higher and lower than 70%); Herbicidal effect grade, A: Echinochloa oryzacola Vasing. [4]: 1 (Herbicidal ratio of 5% or higher and lower than 20%); Herbicidal effect grade, A: Echinochloa oryzacola Vasing. [5]: 3 (Herbicidal ratio of 40% or higher and lower than 70%); Herbicidal effect grade, B: Scirpus juncoides (Scirpus juncoides [6]): 0 (Herbicidal ratio of 5% or lower (almost no effect)); Herbicidal effect grade, B: Scirpus juncoides (Scirpus juncoides [7]): 2 (Herbicidal ratio of 20% or higher and lower than 40%); Herbicidal effect grade, C: Monochoria vaginalis (Monochoria vaginalis): 0 (Herbicidal ratio of 5% or lower (almost no effect))
